Laboratory results reported in the NIST ThermoML archive (doi:10.1021/je034076x).
Numbers after ± are expanded uncertainties.

Settings: 101.33 kPa, Liquid; for viscosity: Capillary tube (Ostwald / Ubbelohde) method; for speed of sound: Pulse-echo method; for mass density: Vibrating tube method

Compound | viscosity (283.15 K) | speed of sound (283.15 K) | mass density (283.15 K) | viscosity (298.15 K) | speed of sound (298.15 K) | mass density (298.15 K) | viscosity (313.15 K) | speed of sound (313.15 K) | mass density (313.15 K)
OCC(F)(F)F [2,2,2-trifluoroethanol] | 2.694 ± 0.02 mPa·s | 872.7 ± 0.5 m/s | 1408.1 ± 0.3 kg/m3 | 1.755 ± 0.013 mPa·s | 833.2 ± 0.5 m/s | 1382.56 ± 0.28 kg/m3 | 1.208 ± 0.0095 mPa·s | 793.3 ± 0.5 m/s | 1356.89 ± 0.27 kg/m3
C1CCOC1 [tetrahydrofuran] | 0.5438 ± 0.0055 mPa·s | 1348.8 ± 1.2 m/s | 898.62 ± 0.47 kg/m3 | 0.4645 ± 0.0048 mPa·s | 1279 ± 1.2 m/s | 882.18 ± 0.46 kg/m3 | 0.3992 ± 0.0043 mPa·s | 1204.8 ± 1.2 m/s | 865.95 ± 0.45 kg/m3
